Reference: ChEMBL document CHEMBL3885881, “DrugMatrix”

Species: Rattus norvegicus
Experiment: DrugMatrix - Regimen: Daily Repeat
Assay type: toxicity, organism-based, Sprague-Dawley
Set-up: regimen Daily Repeat, gender Male, age 6-8 weeks
Conditions: in vivo, po, route oral GAVAGE, vehicle .5 % CMC; for ABSOLUTE BASOPHIL / ABSOLUTE EOSINOPHIL / ABSOLUTE LYMPHOCYTE / ABSOLUTE MONOCYTE / ABSOLUTE SEGMENTED NEUTROPHIL / BASOPHIL / EOSINOPHIL / ERYTHROCYTE COUNT / HEMATOCRIT / HEMOGLOBIN / LEUKOCYTE COUNT / LYMPHOCYTE / MEAN CORPUSCULAR HEMOGLOBIN / MEAN CORPUSCULAR HEMOGLOBIN CONCENTRATION / MEAN CORPUSCULAR VOLUME / MONOCYTE / NEUTROPHIL / NUCLEATED RED BLOOD CELLS / PLATELET COUNT: tissue Blood; for ALANINE AMINOTRANSFERASE / ALBUMIN / ALKALINE PHOSPHATASE / ASPARTATE AMINOTRANSFERASE / BLOOD UREA NITROGEN / CARBON DIOXIDE / CHLORIDE / CHOLESTEROL / CREATINE PHOSPHOKINASE / CREATININE / GLUCOSE / LACTATE DEHYDROGENASE / LIPASE / PHOSPHORUS / POTASSIUM / SODIUM / TOTAL BILIRUBIN / TOTAL PROTEIN / URIC ACID: tissue Plasma
[1] = 200 mg/kg, 72 h, dose level Low, time 3 day
[2] = 200 mg/kg, 120 h, dose level Low, time 5 day
[3] = 1000 mg/kg, 72 h, dose level High, time 3 day
[4] = 1000 mg/kg, 120 h, dose level High, time 5 day

c1ccc(Nc2ccc(Nc3ccccc3)cc2)cc1
ABSOLUTE BASOPHIL [1]: 0 CELLS/uL | ABSOLUTE EOSINOPHIL [1]: 237 CELLS/uL | ABSOLUTE LYMPHOCYTE [1]: 13213.33 CELLS/uL | ABSOLUTE MONOCYTE [1]: 291.33 CELLS/uL | ABSOLUTE SEGMENTED NEUTROPHIL [1]: 1225 CELLS/uL | BASOPHIL [1]: 0% | EOSINOPHIL [1]: 1.67% | ERYTHROCYTE COUNT [1]: 5.4 x10E6/uL | HEMATOCRIT [1]: 33.57% | HEMOGLOBIN [1]: 12.87 G/DL | LEUKOCYTE COUNT [1]: 14.97 x10E3/uL | LYMPHOCYTE [1]: 88% | MEAN CORPUSCULAR HEMOGLOBIN [1]: 23.83 pg | MEAN CORPUSCULAR HEMOGLOBIN CONCENTRATION [1]: 38.33 G/DL | MEAN CORPUSCULAR VOLUME [1]: 62.2 fL | MONOCYTE [1]: 2% | NEUTROPHIL [1]: 8.33% | NUCLEATED RED BLOOD CELLS [1]: 0 /100WBC | PLATELET COUNT [1]: 1471 x10E3/uL | ALANINE AMINOTRANSFERASE [1]: 46.67 u/L | ALBUMIN [1]: 4.2 G/DL | ALKALINE PHOSPHATASE [1]: 353.67 u/L | ASPARTATE AMINOTRANSFERASE [1]: 106.33 u/L | BLOOD UREA NITROGEN [1]: 15 mg/dL | CARBON DIOXIDE [1]: 22 mmol/L | CHLORIDE [1]: 105.33 MEQ/L | CHOLESTEROL [1]: 67 mg/dL | CREATINE PHOSPHOKINASE [1]: 1002.33 u/L | CREATININE [1]: 0.23 mg/dL | GLUCOSE [1]: 178.33 mg/dL | LACTATE DEHYDROGENASE [1]: 537.67 u/L | LIPASE [1]: 9.33 u/L | PHOSPHORUS [1]: 12.7 mg/dL | POTASSIUM [1]: 6.26 MEQ/L | SODIUM [1]: 143.9 MEQ/L | TOTAL BILIRUBIN [1]: 0.23 mg/dL | TOTAL PROTEIN [1]: 5.57 G/DL | URIC ACID [1]: 1.87 mg/dL | ABSOLUTE BASOPHIL [2]: 0 CELLS/uL | ABSOLUTE EOSINOPHIL [2]: 45 CELLS/uL | ABSOLUTE LYMPHOCYTE [2]: 13082 CELLS/uL | ABSOLUTE MONOCYTE [2]: 237 CELLS/uL | ABSOLUTE SEGMENTED NEUTROPHIL [2]: 736 CELLS/uL | BASOPHIL [2]: 0% | EOSINOPHIL [2]: 0.33% | ERYTHROCYTE COUNT [2]: 5.63 x10E6/uL | HEMATOCRIT [2]: 36.07% | HEMOGLOBIN [2]: 13.67 G/DL | LEUKOCYTE COUNT [2]: 14.1 x10E3/uL | LYMPHOCYTE [2]: 92.67% | MEAN CORPUSCULAR HEMOGLOBIN [2]: 24.23 pg | MEAN CORPUSCULAR HEMOGLOBIN CONCENTRATION [2]: 37.93 G/DL | MEAN CORPUSCULAR VOLUME [2]: 63.97 fL | MONOCYTE [2]: 1.67% | NEUTROPHIL [2]: 5.33% | NUCLEATED RED BLOOD CELLS [2]: 0.33 /100WBC | PLATELET COUNT [2]: 1272.33 x10E3/uL | ALANINE AMINOTRANSFERASE [2]: 46 u/L | ALBUMIN [2]: 4.23 G/DL | ALKALINE PHOSPHATASE [2]: 349 u/L | ASPARTATE AMINOTRANSFERASE [2]: 77.67 u/L | BLOOD UREA NITROGEN [2]: 17 mg/dL | CARBON DIOXIDE [2]: 28 mmol/L | CHLORIDE [2]: 105.67 MEQ/L | CHOLESTEROL [2]: 70.67 mg/dL | CREATINE PHOSPHOKINASE [2]: 230.33 u/L | CREATININE [2]: 0.24 mg/dL | GLUCOSE [2]: 178 mg/dL | LACTATE DEHYDROGENASE [2]: 121.33 u/L | LIPASE [2]: 8.67 u/L | PHOSPHORUS [2]: 12.4 mg/dL | POTASSIUM [2]: 6.76 MEQ/L | SODIUM [2]: 148.13 MEQ/L | TOTAL BILIRUBIN [2]: 0.23 mg/dL | TOTAL PROTEIN [2]: 5.83 G/DL | URIC ACID [2]: 2 mg/dL | ABSOLUTE BASOPHIL [3]: 0 CELLS/uL | ABSOLUTE EOSINOPHIL [3]: 52.33 CELLS/uL | ABSOLUTE LYMPHOCYTE [3]: 13944 CELLS/uL | ABSOLUTE MONOCYTE [3]: 300.33 CELLS/uL | ABSOLUTE SEGMENTED NEUTROPHIL [3]: 1236.67 CELLS/uL | BASOPHIL [3]: 0% | EOSINOPHIL [3]: 0.33% | ERYTHROCYTE COUNT [3]: 5.47 x10E6/uL | HEMATOCRIT [3]: 34.97% | HEMOGLOBIN [3]: 13.1 G/DL | LEUKOCYTE COUNT [3]: 15.53 x10E3/uL | LYMPHOCYTE [3]: 89.67% | MEAN CORPUSCULAR HEMOGLOBIN [3]: 23.97 pg | MEAN CORPUSCULAR HEMOGLOBIN CONCENTRATION [3]: 37.47 G/DL | MEAN CORPUSCULAR VOLUME [3]: 63.93 fL | MONOCYTE [3]: 2% | NEUTROPHIL [3]: 8% | NUCLEATED RED BLOOD CELLS [3]: 0 /100WBC | PLATELET COUNT [3]: 1345 x10E3/uL | ALANINE AMINOTRANSFERASE [3]: 40 u/L | ALBUMIN [3]: 4.3 G/DL | ALKALINE PHOSPHATASE [3]: 405.33 u/L | ASPARTATE AMINOTRANSFERASE [3]: 83 u/L | BLOOD UREA NITROGEN [3]: 18.33 mg/dL | CARBON DIOXIDE [3]: 26.33 mmol/L | CHLORIDE [3]: 102.33 MEQ/L | CHOLESTEROL [3]: 78.33 mg/dL | CREATINE PHOSPHOKINASE [3]: 324.33 u/L | CREATININE [3]: 0.21 mg/dL | GLUCOSE [3]: 155.67 mg/dL | LACTATE DEHYDROGENASE [3]: 398 u/L | LIPASE [3]: 8.67 u/L | PHOSPHORUS [3]: 12.6 mg/dL | POTASSIUM [3]: 7.38 MEQ/L | SODIUM [3]: 144.77 MEQ/L | TOTAL BILIRUBIN [3]: 0.33 mg/dL | TOTAL PROTEIN [3]: 5.8 G/DL | URIC ACID [3]: 1.47 mg/dL | ABSOLUTE BASOPHIL [4]: 0 CELLS/uL | ABSOLUTE EOSINOPHIL [4]: 50 CELLS/uL | ABSOLUTE LYMPHOCYTE [4]: 13072 CELLS/uL | ABSOLUTE MONOCYTE [4]: 337.33 CELLS/uL | ABSOLUTE SEGMENTED NEUTROPHIL [4]: 907.33 CELLS/uL | BASOPHIL [4]: 0% | EOSINOPHIL [4]: 0.33% | ERYTHROCYTE COUNT [4]: 5.47 x10E6/uL | HEMATOCRIT [4]: 35.47% | HEMOGLOBIN [4]: 13.47 G/DL | LEUKOCYTE COUNT [4]: 14.37 x10E3/uL | LYMPHOCYTE [4]: 91% | MEAN CORPUSCULAR HEMOGLOBIN [4]: 24.77 pg | MEAN CORPUSCULAR HEMOGLOBIN CONCENTRATION [4]: 37.97 G/DL | MEAN CORPUSCULAR VOLUME [4]: 65.07 fL | MONOCYTE [4]: 2.33% | NEUTROPHIL [4]: 6.33% | NUCLEATED RED BLOOD CELLS [4]: 0 /100WBC | PLATELET COUNT [4]: 1396.67 x10E3/uL | ALANINE AMINOTRANSFERASE [4]: 42.33 u/L | ALBUMIN [4]: 4.23 G/DL | ALKALINE PHOSPHATASE [4]: 316.67 u/L | ASPARTATE AMINOTRANSFERASE [4]: 67 u/L | BLOOD UREA NITROGEN [4]: 16.33 mg/dL | CARBON DIOXIDE [4]: 29 mmol/L | CHLORIDE [4]: 105.67 MEQ/L | CHOLESTEROL [4]: 69.33 mg/dL | CREATINE PHOSPHOKINASE [4]: 202.33 u/L | CREATININE [4]: 0.25 mg/dL | GLUCOSE [4]: 159 mg/dL | LACTATE DEHYDROGENASE [4]: 84.33 u/L | LIPASE [4]: 9 u/L | PHOSPHORUS [4]: 12.27 mg/dL | POTASSIUM [4]: 6.19 MEQ/L | SODIUM [4]: 146.97 MEQ/L | TOTAL BILIRUBIN [4]: 0.33 mg/dL | TOTAL PROTEIN [4]: 5.83 G/DL | URIC ACID [4]: 1.73 mg/dL
